From patent US9944618B2, “Inhibiting neurotransmitter reuptake” (Mayo Foundation for Medical Education and Research, priority 2013, dated 2018)
Like-named read-outs stand apart in the source and are kept apart here.

Legend:
[1] = biological target: human dopamine transporter (Homo sapiens (Human), UniProt Q01959); assay: Human DAT (dopamine transporter) uptake assay; format: cell-based; conditions: read-out: hDAT Ki
Procedure, shortened: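 Uptake inhibition was measured in HEK293F cells transfected with human DAT, plated at ~60,000 cells/well and settled ≥3 h at 37 °C. Compounds came from 10 mM DMSO stocks. Read-out was uptake of a fluorescent neurotransmitter transporter dye in HBSS with 0.02 M HEPES, with dye level given as % of vendor reconstitution; n=3.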

[2] = biological target: human serotonin transporter (Homo sapiens (Human), UniProt P31645); assay: Human SERT (serotonin transporter) uptake assay; format: cell-based; conditions: read-out: hSERT Ki
Sequence of human serotonin transporter (P31645 whole entry): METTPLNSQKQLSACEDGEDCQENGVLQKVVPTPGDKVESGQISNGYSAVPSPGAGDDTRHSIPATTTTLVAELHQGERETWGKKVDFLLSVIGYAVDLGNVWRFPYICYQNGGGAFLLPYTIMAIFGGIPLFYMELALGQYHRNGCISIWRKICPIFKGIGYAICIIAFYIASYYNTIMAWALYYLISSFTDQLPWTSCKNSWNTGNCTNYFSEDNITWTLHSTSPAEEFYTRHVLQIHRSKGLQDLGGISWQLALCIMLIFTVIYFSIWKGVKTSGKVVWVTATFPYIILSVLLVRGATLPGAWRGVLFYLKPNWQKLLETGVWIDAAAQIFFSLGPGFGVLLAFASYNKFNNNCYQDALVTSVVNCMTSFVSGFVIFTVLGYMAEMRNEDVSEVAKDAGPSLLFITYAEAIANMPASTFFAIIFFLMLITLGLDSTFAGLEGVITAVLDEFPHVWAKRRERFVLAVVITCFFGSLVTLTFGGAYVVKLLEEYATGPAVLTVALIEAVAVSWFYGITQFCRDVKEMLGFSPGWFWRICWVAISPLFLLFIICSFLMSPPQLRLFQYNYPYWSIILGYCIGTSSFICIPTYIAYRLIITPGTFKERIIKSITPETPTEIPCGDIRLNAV
Procedure, shortened: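 HEK293F cells transfected with human SERT, about 60,000 per well, settled for ≥3 h at 37° C before compound addition. Uptake was followed with a fluorescent transporter dye in HBSS with 0.02 M HEPES. Background came from 10 μM fluoxetine, nomifensine was the control, n=3.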

[3] = biological target: human norepinephrine transporter (Homo sapiens (Human), UniProt P23975); assay: Human NET (norepinephrine transporter) uptake assay; format: cell-based; conditions: read-out: hNET Ki
Sequence of human norepinephrine transporter (P23975 whole entry): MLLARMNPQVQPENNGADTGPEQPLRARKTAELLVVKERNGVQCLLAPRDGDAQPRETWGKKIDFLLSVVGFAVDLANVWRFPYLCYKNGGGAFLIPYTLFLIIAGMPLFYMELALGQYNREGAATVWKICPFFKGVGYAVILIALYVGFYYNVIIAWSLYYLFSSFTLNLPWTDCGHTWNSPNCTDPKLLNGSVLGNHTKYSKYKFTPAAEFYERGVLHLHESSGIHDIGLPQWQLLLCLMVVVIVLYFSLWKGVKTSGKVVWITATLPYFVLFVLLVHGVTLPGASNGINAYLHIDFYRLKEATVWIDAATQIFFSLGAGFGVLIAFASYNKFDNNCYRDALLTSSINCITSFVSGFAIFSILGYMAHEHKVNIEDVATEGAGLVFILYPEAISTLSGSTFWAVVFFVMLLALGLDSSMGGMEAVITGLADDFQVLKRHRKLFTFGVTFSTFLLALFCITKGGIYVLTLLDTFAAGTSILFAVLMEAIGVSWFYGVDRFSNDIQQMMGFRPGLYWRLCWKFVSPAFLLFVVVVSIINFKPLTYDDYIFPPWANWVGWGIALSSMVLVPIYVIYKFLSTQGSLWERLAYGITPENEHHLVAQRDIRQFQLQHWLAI
Procedure, shortened: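 HEK293F cells transfected with human NET were thawed, plated at about 60,000 cells/well and held at 37 °C for at least 3 h. Compounds came from 10 mM DMSO stocks, with nomifensine as control, in 1×HBSS/0.02 M HEPES. Uptake was followed with a neurotransmitter transporter dye, dosed as % of vendor reconstitution, in triplicate.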

hERG = hERG (Homo sapiens (Human), UniProt Q12809); assay: Human ERG (hERG) assay, hERG currents in hERG-expressing CHO cells; format: cell-based; conditions: hERG-expressing CHO cells
Sequence of hERG (Q12809 whole entry): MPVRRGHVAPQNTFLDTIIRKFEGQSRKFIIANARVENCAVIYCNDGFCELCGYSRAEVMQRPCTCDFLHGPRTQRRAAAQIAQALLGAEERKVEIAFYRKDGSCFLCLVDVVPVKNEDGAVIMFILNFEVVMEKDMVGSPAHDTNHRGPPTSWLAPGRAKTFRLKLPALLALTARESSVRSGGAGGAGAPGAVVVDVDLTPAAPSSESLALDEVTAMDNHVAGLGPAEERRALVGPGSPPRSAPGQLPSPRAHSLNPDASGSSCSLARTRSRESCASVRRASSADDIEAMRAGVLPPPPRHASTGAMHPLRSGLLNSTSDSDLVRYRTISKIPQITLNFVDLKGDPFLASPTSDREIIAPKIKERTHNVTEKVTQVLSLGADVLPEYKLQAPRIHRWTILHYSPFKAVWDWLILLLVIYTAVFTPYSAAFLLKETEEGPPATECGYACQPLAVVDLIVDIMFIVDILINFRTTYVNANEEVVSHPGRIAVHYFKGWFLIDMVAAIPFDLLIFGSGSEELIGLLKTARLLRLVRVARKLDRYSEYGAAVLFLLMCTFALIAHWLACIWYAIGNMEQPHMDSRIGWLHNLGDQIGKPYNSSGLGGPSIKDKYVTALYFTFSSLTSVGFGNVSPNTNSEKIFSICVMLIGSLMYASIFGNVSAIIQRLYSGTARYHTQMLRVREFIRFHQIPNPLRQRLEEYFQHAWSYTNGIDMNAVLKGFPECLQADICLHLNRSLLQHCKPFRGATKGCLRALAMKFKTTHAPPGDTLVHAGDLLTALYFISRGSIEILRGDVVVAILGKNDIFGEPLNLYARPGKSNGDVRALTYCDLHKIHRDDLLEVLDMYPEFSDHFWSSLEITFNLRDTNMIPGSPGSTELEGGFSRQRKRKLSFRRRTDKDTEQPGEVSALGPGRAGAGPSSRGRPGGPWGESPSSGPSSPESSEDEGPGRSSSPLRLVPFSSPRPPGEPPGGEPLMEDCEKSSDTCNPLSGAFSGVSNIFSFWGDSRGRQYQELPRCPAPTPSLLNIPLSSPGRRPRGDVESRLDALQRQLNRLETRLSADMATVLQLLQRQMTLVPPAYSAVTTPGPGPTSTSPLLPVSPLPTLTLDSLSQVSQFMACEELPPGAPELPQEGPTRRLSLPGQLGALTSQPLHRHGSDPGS

CYP2D6 = CYP2D6 (Homo sapiens (Human), UniProt P10635); assay: Cytochrome P450 inhibition assay, recombinant CYP2D6 (MAMC substrate); format: in vitro ADME; conditions: recombinant enzyme
Sequence of CYP2D6 (P10635 whole entry): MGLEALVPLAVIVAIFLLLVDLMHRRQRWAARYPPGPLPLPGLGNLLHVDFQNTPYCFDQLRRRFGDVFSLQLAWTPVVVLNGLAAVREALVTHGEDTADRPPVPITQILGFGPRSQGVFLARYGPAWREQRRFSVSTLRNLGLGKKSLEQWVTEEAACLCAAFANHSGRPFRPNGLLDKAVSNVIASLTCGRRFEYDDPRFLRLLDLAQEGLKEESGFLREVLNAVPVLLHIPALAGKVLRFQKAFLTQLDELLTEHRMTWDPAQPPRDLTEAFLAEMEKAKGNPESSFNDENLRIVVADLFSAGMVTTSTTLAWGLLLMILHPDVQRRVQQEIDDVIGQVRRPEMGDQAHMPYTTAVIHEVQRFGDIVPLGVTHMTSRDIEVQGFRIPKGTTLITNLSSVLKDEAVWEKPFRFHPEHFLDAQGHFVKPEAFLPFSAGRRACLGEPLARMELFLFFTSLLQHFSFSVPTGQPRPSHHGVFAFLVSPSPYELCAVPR
Protocol: (§1) Recombinant enzymes, 3A4 and 2D6, generated using the ABL yeast expression system were used. […] The assay mixture also included K2HPO4 (pH 7.4; conc. 0.1 M) and NADPH (conc. 1 mM). The incubation time was 30 minutes, and the reference inhibitor was A-naphthoflavone. For CYP2D6, the enzyme amount was 2 pmol per well, and the substrate (7-methoxy-4-(aminomethyl)-coumarin; MAMC) was used at 20 μM. The assay mixture also included K2HPO4 (pH 7.4; conc. 0.1 M) and NADPH (conc. 0.06 mM). The incubation time was 35 minutes, and the reference inhibitor was quinidine.
(§2) Briefly, 0.6 μL of serially diluted compound was added to 75 μL water. 10 μL of diluted compound in water was then added to each assay plate. 20 μL of a K2HPO4, enzyme, and substrate mixture was added. After 10 minutes of room temperature pre-incubation, 10 μL of NADPH was added, and the plates were placed at 37° C. for 30 or 35 minutes depending on the enzyme being tested. After the incubation was complete, 20 μL of 0.1% Tris/ACN was added to the plate. The plate was read on a FluorStar fluorescence plate reader.

CYP3A4 = CYP3A4 (Homo sapiens (Human), UniProt P08684); assay: Cytochrome P450 inhibition assay, recombinant CYP3A4 (BFC substrate); format: in vitro ADME; conditions: recombinant enzyme
Sequence of CYP3A4 (P08684 whole entry): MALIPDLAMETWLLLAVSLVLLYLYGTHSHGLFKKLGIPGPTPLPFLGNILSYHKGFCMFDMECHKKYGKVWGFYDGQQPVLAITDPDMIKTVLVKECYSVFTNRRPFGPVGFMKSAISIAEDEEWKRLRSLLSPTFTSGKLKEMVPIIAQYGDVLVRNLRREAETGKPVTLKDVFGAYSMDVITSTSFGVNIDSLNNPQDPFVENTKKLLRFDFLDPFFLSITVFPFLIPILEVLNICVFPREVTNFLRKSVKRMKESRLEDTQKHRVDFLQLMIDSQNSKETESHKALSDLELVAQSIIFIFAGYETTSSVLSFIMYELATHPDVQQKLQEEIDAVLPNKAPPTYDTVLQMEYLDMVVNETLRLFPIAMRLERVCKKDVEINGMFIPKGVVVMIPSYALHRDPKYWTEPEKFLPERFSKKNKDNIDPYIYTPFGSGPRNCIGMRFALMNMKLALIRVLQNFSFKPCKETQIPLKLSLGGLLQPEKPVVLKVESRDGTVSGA
Protocol: as §1, §2

[4] = pKa of basic centres (Table 1); format: physicochemical
[5] = first base, e.g., an aliphatic primary, secondary, or tertiary amine
[6] = second base in the same molecule (if present), read-out: pKa (Base 2)
[7] = first base, e.g., an aliphatic primary, secondary, or tertiary amine, read-out: pKa (Base 1)

Sequence of human dopamine transporter (Q01959 whole entry): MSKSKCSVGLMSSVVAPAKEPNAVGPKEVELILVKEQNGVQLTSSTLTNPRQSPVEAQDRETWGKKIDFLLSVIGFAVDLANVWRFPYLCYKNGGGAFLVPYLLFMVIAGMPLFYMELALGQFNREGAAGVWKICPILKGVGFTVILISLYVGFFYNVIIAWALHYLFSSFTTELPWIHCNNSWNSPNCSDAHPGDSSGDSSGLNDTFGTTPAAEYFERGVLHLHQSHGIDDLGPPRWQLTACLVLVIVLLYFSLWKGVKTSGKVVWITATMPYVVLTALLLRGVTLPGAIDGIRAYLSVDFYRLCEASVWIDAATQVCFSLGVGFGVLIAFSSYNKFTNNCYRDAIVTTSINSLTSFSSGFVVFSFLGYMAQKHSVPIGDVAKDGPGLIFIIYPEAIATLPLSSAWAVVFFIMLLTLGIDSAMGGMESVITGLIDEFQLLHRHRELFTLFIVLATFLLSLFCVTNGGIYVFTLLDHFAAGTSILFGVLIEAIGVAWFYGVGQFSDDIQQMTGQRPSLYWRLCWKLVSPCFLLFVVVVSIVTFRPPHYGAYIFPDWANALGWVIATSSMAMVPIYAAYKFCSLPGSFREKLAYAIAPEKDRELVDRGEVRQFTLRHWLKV

Structure (SMILES)	Ki [1]	Ki [2]	Ki [3]	IC50 (hERG)	IC50 (CYP2D6)	IC50 (CYP3A4)	pKa (Base 1) [4, 5]	pKa [4, 6]	pKa [4, 7]
CNCC(Cc1cccnc1)c1ccc2ccccc2c1 (centres unmarked) [Compound 74]	109 nM	13.6 nM	10.3 nM	20000 nM	790 nM	8100 nM	9.9	5.2	–
CNCC(Cc1cccnc1)c1ccc2ccccc2c1 (centres unmarked) [Compound 48]	78 nM	2.3 nM	3.8 nM	33000 nM	580 nM	15000 nM	–	–	9.9
CNC[C@H](c1ccc(Br)c(Cl)c1)[C@@H](O)c1ccccc1 [Compound 21]	32.4 nM	66.4 nM	2 nM	23000 nM	470 nM	20000 nM	–	–	9.4
CNC[C@H](c1ccc(Cl)c(Cl)c1)[C@@H](O)c1ccccc1SC [Compound 97]	22.6 nM	78.4 nM	38.2 nM	8000 nM	180 nM	15000 nM	–	–	9.4
CNC[C@H](c1ccc(Cl)c(Cl)c1)[C@H](O)c1ccccc1OC [Compound 160]	83.5 nM	9.2 nM	9.1 nM	8000 nM	490 nM	3500 nM	–	–	9.4
CNCC(Cc1ccccc1C)c1ccc2ccccc2c1 (centres unmarked) [Compound 134]	56.8 nM	7.8 nM	6 nM	6200 nM	220 nM	9900 nM	–	–	10.1
CNC[C@H](c1ccc2ccccc2c1)[C@H](O)c1cncc(OC)c1 [Compound 92]	216 nM	9.3 nM	28 nM	33000 nM	810 nM	20000 nM	–	4.5	9.6
CNC[C@H](c1ccc2ccccc2c1)[C@H](OCC(=O)NCCO)c1ccccc1 [Compound 14]	79.3 nM	3.1 nM	1.6 nM	33000 nM	3700 nM	20000 nM	–	–	9.6
CNC[C@H](c1ccc2ccccc2c1)[C@H](O)c1ccccc1C (racemic) [Compound 56]	40.4 nM	6.7 nM	4.7 nM	22000 nM	240 nM	11000 nM	–	–	9.7
CNC[C@@H](c1ccc2ccccc2c1)[C@H](O)c1ccccn1 (racemic) [Compound 72]	100 nM	27.6 nM	10.1 nM	33000 nM	760 nM	≥ 20000 nM	–	4.1	9.6
CNC[C@@H](c1ccc(Cl)c(Cl)c1)[C@@H](O)c1cccc(SC)c1 [Compound 154]	40.3 nM	38.4 nM	37.1 nM	2200 nM	290 nM	6900 nM	9.4	–	–
CNCC(Cc1cccs1)c1ccc2ccccc2c1 (racemic) [Compound 40]	114 nM	3.3 nM	3.2 nM	4100 nM	960 nM	19000 nM	–	–	10
CNC[C@@H](c1ccc(Br)c(Cl)c1)[C@@H](O)c1ccccc1 [Compound 110]	24 nM	677 nM	142 nM	6800 nM	1900 nM	17000 nM	–	–	9.4
CNC[C@H](c1ccc2ccccc2c1)[C@@H](Cl)c1ccccc1 [Compound 61]	14.6 nM	0.9 nM	5.8 nM	9800 nM	300 nM	20000 nM	–	–	9.5
CNCC(C[C@H](O)c1ccccc1)c1ccc2ccccc2c1 (some centres unmarked) [Compound 85]	247 nM	16.1 nM	16.4 nM	21000 nM	1000 nM	20000 nM	–	–	10.1
NC[C@H](c1ccc2ccccc2c1)[C@@H](O)c1ccncc1Cl [Compound 95]	30.7 nM	36.9 nM	33.5 nM	33000 nM	410 nM	11000 nM	–	–	8
C[C@](CN)(Cc1cccnc1)c1ccc2ccccc2c1 [Compound 42]	89.5 nM	0.3 nM	3.2 nM	27000 nM	1100 nM	3400 nM	–	5.2	9.2
CNC[C@@H](c1ccc(Cl)c(Cl)c1)[C@@H](O)c1ccsc1 [Compound 153]	33.8 nM	7.5 nM	3.9 nM	1600 nM	1400 nM	20000 nM	9.5	–	–
CNC[C@H](c1ccc2ccccc2c1)[C@H](Cl)c1ccccc1 [Compound 146]	144 nM	10.1 nM	9.3 nM	15000 nM	92 nM	1300 nM	–	–	9.5
